Test results from patent US20250340570A1, “COMPOSITIONS USEFUL FOR MODULATING SPLICING” (Skyhawk Therapeutics, Inc., priority 2022, published 2025).

Columns and labels:
[1] = system: ATXN3 transcripts containing exon 4; assay: ATXN3 quantitative splicing assay (qPCR, E4E5 transcripts containing exon 4); format: cell-based; details: Human neuroblastoma SK-N-MC cells, 24 h treatment, qPCR primers/probe E4E5
Method: Human neuroblastoma SK-N-MC cells were plated in 384-well plates at 20,000 cells/well. Twenty-four hours after plating, cells were treated with compounds for 24 h at appropriate concentrations ranging from 30 μM to 0.6 nM (0.3% DMSO). Treated cells were lysed in 15 μL of lysis buffer, and cDNA was synthesized using the Fast Advanced Cells-to-Ct kit. Two μL of each cDNA was used in qPCR reactions to confirm the exon 4 skipped transcripts of ATXN3. A second set of primers/probe E4E5 was used to detect the transcripts containing exon 4. The third set of primers/probe E8E9 was used to detect total gene level of ATXN3. The qPCR reactions were prepared in 384-well plates in 10.L volume, using TaqMan™ Fast Advanced Master Mix with primers and probes shown in the table below. Reactions were run in a Quant Studio 6 qPCR instrument with default settings.
The primers and probes are listed below in Table 5.

[2] = system: total ATXN3 protein; assay: ATXN3 total protein assay (Mesoscale Discovery); format: cell-based; details: Human neuroblastoma SK-N-MC cells, 48 hours incubation, MSD assay
Method: Human neuroblastoma SK-N-MC cells were seeded at 10,000 cells/well in 384 well plates one day prior to compound treatment. The concentrations of compounds were tested at appropriate doses ranging from 30 µM to 0.6 nM. After incubation for 48 hours, the cells were lysed with 25.L of lysis buffer containing protease inhibitors, and total ATXN3 protein levels were assessed by Mesoscale Discovery (MSD) assay developed with one pair of and-ATXN3 antibodies. The capture and detect antibodies were raised in mouse and rabbit respectively. Anti-rabbit MSD-ST antibody was used for secondary antibody.
ATXN3 recombinant protein was used for standards. The readouts were captured with 35.L of MSD read buffer and multi-array 384-well high binding plates.

| SMILES | IC50 [1] | IC50 [2] |
| --- | --- | --- |
| Cc1csc2c(NCc3ccncc3)snc12 [Compound 1, [(4-pyridyl)methyl](8-methyl-3,6-dithia-2-azabicyclo[3.3.0]octa-1,4,7-trien-4-yl)amine] | 10 to 40 µM | 10 to 40 µM |
| Cc1csc2c(NCc3ccccc3)snc12 [Compound 3, (benzyl)(8-methyl-3,6-dithia-2-azabicyclo[3.3.0]octa-1,4,7-trien-4-yl)amine] | 10 to 40 µM | 10 to 40 µM |
| Cc1csc2c(NCc3ccco3)snc12 [Compound 4, (furfuryl)(8-methyl-3,6-dithia-2-azabicyclo[3.3.0]octa-1,4,7-trien-4-yl)amine] | 10 to 40 µM | 10 to 40 µM |
| Cc1c(C[C@H](C)N)sc2c(NCc3ccccc3)snc12 [Compound 5, 7-[(S)-2-aminopropyl]-4-benzylamino-8-methyl-3,6-dithia-2-azabicyclo[3.3.0]octa-1,4,7-triene] | 5 to 10 µM | 0.501 to 5 µM |
| Cc1c(C[C@H](C)N)sc2c(NCc3ccco3)snc12 [Compound 6, 7-[(S)-2-aminopropyl]-4-(furfurylamino)-8-methyl-3,6-dithia-2-azabicyclo[3.3.0]octa-1,4,7-triene] | 0.501 to 5 µM | 0.501 to 5 µM |
| Cc1c(C[C@H](C)N)sc2c(NCc3cccs3)snc12 [Compound 7, 7-[(S)-2-aminopropyl]-8-methyl-4-thenylamino-3,6-dithia-2-azabicyclo[3.3.0]octa-1,4,7-triene] | 0.501 to 5 µM | 0.501 to 5 µM |
| Cc1c(C[C@@H](N)CC2CC2)sc2c(NCc3cccs3)snc12 [Compound 8, 7-[(S)-2-amino-3-cyclopropylpropyl]-8-methyl-4-thenylamino-3,6-dithia-2-azabicyclo[3.3.0]octa-1,4,7-triene] | 5 to 10 µM | 5 to 10 µM |
| Cc1c(C[C@@H](N)CC2CC2)sc2c(NCc3ccco3)snc12 [Compound 9, 7-[(S)-2-amino-3-cyclopropylpropyl]-4-(furfurylamino)-8-methyl-3,6-dithia-2-azabicyclo[3.3.0]octa-1,4,7-triene] | 0.501 to 5 µM | 0.501 to 5 µM |
| Cc1c(C[C@@H](N)CF)sc2c(NCc3cccs3)snc12 [Compound 10, 7-[(R)-2-amino-3-fluoropropyl]-8-methyl-4-thenylamino-3,6-dithia-2-azabicyclo[3.3.0]octa-1,4,7-triene] | 0.501 to 5 µM | 0.501 to 5 µM |
| C[C@H](N)Cc1sc2c(NCc3cccs3)snc2c1Cl [Compound 17, 7-[(S)-2-aminopropyl]-8-chloro-4-thenylamino-3,6-dithia-2-azabicyclo[3.3.0]octa-1,4,7-triene] | 0.501 to 5 µM | 0.101 to 0.5 µM |
| C[C@H](N)Cc1sc2c(NCc3cccs3)snc2c1Br [Compound 18, 7-[(S)-2-aminopropyl]-8-bromo-4-thenylamino-3,6-dithia-2-azabicyclo[3.3.0]octa-1,4,7-triene] | 0.101 to 0.5 µM | 0.101 to 0.5 µM |
| C[C@H](N)Cc1sc2c(NCc3cccs3)snc2c1C#N [Compound 19, 7-[(S)-2-aminopropyl]-4-thenylamino-3,6-dithia-2-azabicyclo[3.3.0]octa-1,4,7-triene-8-carbonitrile] | 0.501 to 5 µM | 0.501 to 5 µM |
| C[C@H](N)Cc1sc2c(NCc3cccs3)snc2c1C1CC1 [Compound 20, 7-[(S)-2-aminopropyl]-8-cyclopropyl-4-thenylamino-3,6-dithia-2-azabicyclo[3.3.0]octa-1,4,7-triene] | 10 to 40 µM | 10 to 40 µM |
| C=Cc1c(C[C@H](C)N)sc2c(NCc3cccs3)snc12 [Compound 21, 5-[(2S)-2-aminopropyl]-6-ethenyl-N-(thiophen-2-ylmethyl) thieno[3,2-c][1,2]thiazol-3-amine] | 10 to 40 µM | 10 to 40 µM |
| C[C@H](N)Cc1sc2c(NCc3ccco3)snc2c1Cl [Compound 23, 7-[(S)-2-aminopropyl]-8-chloro-4-(furfurylamino)-3,6-dithia-2-azabicyclo[3.3.0]octa-1,4,7-triene] | 0.101 to 0.5 µM | 0.101 to 0.5 µM |
| C[C@H](N)Cc1sc2c(NCc3ccco3)snc2c1Br [Compound 24, 7-[(S)-2-aminopropyl]-8-bromo-4-(furfurylamino)-3,6-dithia-2-azabicyclo[3.3.0]octa-1,4,7-triene] | 0.101 to 0.5 µM | 0.101 to 0.5 µM |
| C[C@H](N)Cc1sc2c(NCc3ccco3)snc2c1O [Compound 25, 7-[(S)-2-aminopropyl]-4-(furfurylamino)-3,6-dithia-2-azabicyclo[3.3.0]octa-1,4,7-trien-8-ol] | 10 to 40 µM | 10 to 40 µM |
| COc1c(C[C@H](C)N)sc2c(NCc3ccco3)snc12 [Compound 26, 5-[(2S)-2-aminopropyl]-N-(furan-2-ylmethyl)-6-methoxythieno[3,2-c][1,2]thiazol-3-amine] | 5 to 10 µM | 5 to 10 µM |
| C[C@H](N)Cc1sc2c(NCc3cccs3)snc2c1O [Compound 27, 7-[(S)-2-aminopropyl]-4-thenylamino-3,6-dithia-2-azabicyclo[3.3.0]octa-1,4,7-trien-8-ol] | 10 to 40 µM | 10 to 40 µM |
| COc1c(C[C@H](C)N)sc2c(NCc3cccs3)snc12 [Compound 28, 7-[(S)-2-aminopropyl]-8-methoxy-4-thenylamino-3,6-dithia-2-azabicyclo[3.3.0]octa-1,4,7-triene] | 5 to 10 µM | 10 to 40 µM |
| C[C@H](N)Cc1sc2c(NCc3cccs3)snc2c1F [Compound 30, 7-[(S)-2-aminopropyl]-8-fluoro-4-thenylamino-3,6-dithia-2-azabicyclo[3.3.0]octa-1,4,7-triene] | 5 to 10 µM | 10 to 40 µM |
| C[C@H](N)Cc1sc2c(NCc3ccco3)snc2c1C1CC1 [Compound 31, 7-[(S)-2-aminopropyl]-8-cyclopropyl-4-(furfurylamino)-3,6-dithia-2-azabicyclo[3.3.0]octa-1,4,7-triene] | 5 to 10 µM | 5 to 10 µM |
| C[C@H](N)Cc1sc2c(NCc3cccs3)snc2c1C(F)(F)F [Compound 35, 7-[(S)-2-aminopropyl]-4-thenylamino-8-(trifluoromethyl)-3,6-dithia-2-azabicyclo[3.3.0]octa-1,4,7-triene] | 0.501 to 5 µM | 0.501 to 5 µM |
| Cc1c(C[C@@H](N)CC(F)(F)F)sc2c(NCc3cccs3)snc12 [Compound 36, 7-[(S)-2-amino-4,4,4-trifluorobutyl]-8-methyl-4-thenylamino-3,6-dithia-2-azabicyclo[3.3.0]octa-1,4,7-triene] | 0.501 to 5 µM | 0.501 to 5 µM |
| Cc1c(C[C@@H](N)CO)sc2c(NCc3cccs3)snc12 [Compound 37, (R)-2-amino-3-(8-methyl-4-thenylamino-3,6-dithia-2-azabicyclo[3.3.0]octa-1,4,7-trien-7-yl)-1-propanol] | 0.501 to 5 µM | 0.501 to 5 µM |
| N[C@H](Cc1sc2c(NCc3cccs3)snc2c1Cl)CC(F)(F)F [Compound 38, 7-[(S)-2-amino-4,4,4-trifluorobutyl]-8-chloro-4-thenylamino-3,6-dithia-2-azabicyclo[3.3.0]octa-1,4,7-triene] | 0.501 to 5 µM | 0.501 to 5 µM |
| N[C@H](Cc1sc2c(NCc3cccs3)snc2c1Br)CC(F)(F)F [Compound 39, 7-[(S)-2-amino-4,4,4-trifluorobutyl]-8-bromo-4-thenylamino-3,6-dithia-2-azabicyclo[3.3.0]octa-1,4,7-triene] | 0.501 to 5 µM | 0.501 to 5 µM |
